The subject of the assay is AR. Description: In Vitro AR Agonism Assay (LNAR reporter cell line). The following applies: for Relative Maximum Response to Mifepristone: LNAR reporter cells, RPMI + 10% CSS, 18-24 hrs, maximum response of Mifepristone set to 1. It counts as cell-based. As for the experimental part: In Vitro AR Agonism Assay
The AR agonism assay was done in the LNAR reporter cell line which has overexpressed AR and 4×ARE-Luc genes. This cell line is sensitive to even minor partial AR agonism activity in hormone-deprived media (CSS). The assays were done in RPMI (without phenol red)+10% CSS using 6000 LNAR cells/well in 384-well plates and compounds were incubated with cells in […] incubator for 18-24 hrs. OneGlo reagent (25 uL/well) was added and plates were read with luminometer within 3 minutes.
To gauge the AR partial agonism activity, Mifepristone is included as a standard in the assay. AR agonism assay results are quantified by determining the ratio of the maximum response of individual compounds to the maximum response of Mifepristone (arbitrarily set to 1). Values of Table 4 are reported as Relative Maximum Response to Mifepristone. This general trend of AR agonism was shown for the class of compounds described herein.

Molecules are shown by their SMILES.

Turning to `CC#C[C@]1(O)CC[C@H]2[C@@H]3CCC4=CC(=O)CC[C@@H]4[C@H]3[C@@H](c3ccc(N(C)C)cc3)C[C@@]21C` [Compound 3], the “Relative Maximum Response to Mifepristone” value (shortened to “Relative Maximum Response”) is listed as “B (B: >0.4)”.

Take `COc1ccc([C@H]2C[C@@]3(C)[C@@H](CC[C@@]3(O)C#CC3CC3)[C@@H]3CCC4=CC(=O)CC[C@]4(C)C23)cc1` (stereo partly drawn) [Compound 6]: the “Relative Maximum Response” value is on record as “A (A: ≤0.4)”.

In the case of `CN(C)c1ccc([C@H]2C[C@@]3(C)[C@@H](CC[C@@]3(O)C#CC(C)(C)C)[C@@H]3CCC4=CC(=O)CC[C@@H]4[C@H]32)cc1` [Compound 7, (8R,9S,10R,11S,13S,14S,17S)-11-(4-(dimethylamino)phenyl)-17-(3,3-dimethylbut-1-yn-1-yl)-17-hydroxy-13-methyl-1,2,6,7,8,9,10,11,12,13,14,15,16,17-tetradecahydro-3H-cyclopenta[a]phenanthren-3-one], the “Relative Maximum Response” value is listed as “A (A: ≤0.4)”.

In the case of `COC(C)(C)C#C[C@]1(O)CC[C@H]2[C@@H]3CCC4=CC(=O)CC[C@@H]4[C@H]3[C@@H](c3ccc(N(C)C)cc3)C[C@@]21C` [Compound 10, (8R,9S,10R,11S,13S,14S,17S)-11-(4-(Dimethylamino)phenyl)-17-hydroxy-17-(3-methoxy-3-methylbut-1-yn-1-yl)-13-methyl-1,2,6,7,8,9,10,11,12,13,14,15,16,17-tetradecahydro-3H-cyclopenta[a]phenanthren-3-one], the “Relative Maximum Response” value is “A (A: ≤0.4)”.

As to `CC(C)C#C[C@]1(O)CC[C@H]2[C@@H]3CCC4=CC(=O)CC[C@]4(C)C3[C@@H](c3ccc(N(C)C)cc3)C[C@@]21C` (stereo partly drawn) [Compound 13, (8S,10R,11S,13S,14S,17S)-11-(4-(Dimethylamino)phenyl)-17-hydroxy-10,13-dimethyl-17-(3-methylbut-1-yn-1-yl)-1,2,6,7,8,9,10,11,12,13,14,15,16,17-tetradecahydro-3H-cyclopenta[a]phenanthren-3-one], the “Relative Maximum Response” value is recorded as “A (A: ≤0.4)”.

Turning to `CC#C[C@]1(O)CC[C@H]2[C@@H]3CCC4=CC(=O)CCC4=C3[C@@H](c3ccc(N(C)C)cc3)C[C@@]21C` [Mifepristone, reference compound], the “partial AR agonism” value (in concentrations as low as 10 nM) is given as “strong partial AR agonism”.

Values taken from patent publication US11208432B2, “Inhibitors of glucocorticoid receptor” (ORIC Pharmaceuticals, Inc., priority 2015, dated 2021).
